Experiments:
[1] = system: L. braziliensis UA847 amastigotes; assay: Anti-amastigote activity in infected PEM, L. braziliensis UA847; type: cell-based; details: Leishmania braziliensis, 72 h, 3 days, Giemsa, read-out: Anti-amastigote activity IC50, L. baziliensis UA847
Method in brief: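 Read-out was Giemsa-stained counts of amastigotes per 100 macrophages, used for IC50, after 72 h drug exposure at 37 °C of mouse peritoneal macrophages previously infected with late-log promastigotes.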

[2] = system: peritoneal elicited macrophages (PEM); assay: Cytotoxicity, peritoneal elicited macrophages (PEM); type: cell-based, mouse; details: mouse

Structure (SMILES)	IC50 [1] [nM]	IC50 [2] [nM]
O=c1cc(-c2ccc(OCCOCCN(Cc3ccccn3)Cc3ccccn3)cc2)oc2ccccc12 [FM09, 2-(4-(2-(2-(bis(pyridin-2-ylmethyl)amino)ethoxy)ethoxy)phenyl)-4H-chromen-4-one]	600 ± 100	
O=c1cc(-c2ccc(OCCOCCN(CCOCCOc3ccc(-c4cc(=O)c5ccccc5o4)cc3)Cc3ccncc3)cc2)oc2ccccc12 [compound 39]		> 88000
